pIC50: −log10 of the molar value.
Tests used:
[1] = test system: total AR in MDAPCa2b cells; experiment: Western blotting of total AR, MDAPCa2b; type: cell-based, human; conditions: bergamottin 10μM, CSSM
Description: Cells were plated at 25–30% confluence when maintained in complete media. When the cells required DHT tretment and media replacement to charcoal stripped serum media (CSSM) they were plated at 35–40% confluence. Bergamottin is dissolved in DMSO (vehicle control) and the amount of DMSO at each treatment group was kept constant. After the completion of the treatment cells were washed in phosphate buffer (PBS) containing 2mMEDTA and 2mM EGTA and lysed in RIPA buffer (50 mM TRIS, 150 mM NaCl, 1% NP40, 0.5% sodium deoxycholate, 0.1% SDS, 2mM EDTA, 2mM EGTA) supplemented with protease and phosphatase inhibitors for total protein isolation. Protein estimation was performed using micro BCA assay and equal protein amponts were loaded on SDS-PAGE gels for western analysis. GAPDH was used as an internal control for total protein. Infrared fluorescent-labeled secondary antibodies were used for detection using Odyssey CLx. The bands were quantified using Odyssey software, which calculates pixel density and automatically takes an area adjacent to each band for background corrections.

LNCaP cells [2] = experiment: MTT growth assay, LNCaP; type: cell-based; conditions: Homo sapiens
Description: Growth of the cells was measured using a MTT assay. Cells were plated (2000 cells/ 96 well or 13,000 cells/ 24 well) for 48 hours then treated with bergamottin for 4 days (96 hours) and then incubated with MTT (3-(4,5-Dimethylthiazol- 2-yl)-2,5-Diphenyltetrazolium bromide) (4 mg/ml) for 2 h. at 37°C. DMSO (vehicle control for bergamottin) levels were compensated in each bergamottin treatment group. Cells were centrifuged at 2000 g for 10 min and the supernatant was discarded. The cell pellet was dissolved in 100/500 μl of DMSO depending on the well size. A plate reader was used to read the absorption at 540 nm. Experiments were performed in octuplet/quadruplet and repeated at least three times.

LNCaP cells [3] = experiment: Clonogenic assay, LNCaP; type: cell-based, human; conditions: 5μM and 10μM, 3 weeks
Description: For clonogenic assay, cells were plated in 6 well plates (10,000 cells) for 48 h and then treated with indicated amounts of bergamottin and vehicle control (DMSO). After 3 weeks, the colonies were fixed, stained (0.75% crystal violet, 50% ethanol and 1.75% formaldehyde) and counted. The assay was repeated three times.

For CC(C)=CCC/C(C)=C/COc1c2ccoc2cc2oc(=O)ccc12 [bergamottin], the “downregulation of total AR levels” value [1] was 50%, the inhibition at 10 µM (LNCaP cells [2]; 10μM) was 60% and the pIC50 (LNCaP cells [2]; treatment 96 hours (methods) / 120 hours (Fig 1 legend), read-out: bergamottin concentration giving 50% growth reduction) was 5.62. The number of colonies (LNCaP cells [3]) was “significantly reduced the number of colonies”.
